What was measured:
[1] = DSC doublet peak area (α-structure) of hair after heat cycles; settings: normal blonde hair
Protocol: (§1) Normal blonde hair was bleached with Clairol Basic White Bleach (40 volume H2O2) for 20 min at standard room temperature and humidity. The bleached swatches were rinsed with tap water, and soaked in an excess of deionized water for 2 hours. The swatches were air-dried and equilibrated for 48 hours prior to further treatment. Some of the bleached swatches were subsequently “permed” using a Reforming Lotion (10% TGA, pH 8.8, 20 minutes) and then neutralized with 2% H2O2, pH 3 (5 minutes). The bleached/permed swatches were rinsed with tap water, and soaked in an excess of deionized water for 2 hours. The swatches were air-dried and equilibrated for 48 hours prior to further treatment. The swatches that were heat treated were treated with 0.06M solutions of hexoses and pentoses for 10 min at 45° C. and then were heated for 12 cycles. The swatches were rinsed after the heat application.
(§2) In the DSC tests, finely cut hair (4-5 mg) was crimped in an aluminum pan that was punctured prior to each run. The samples were heated from 25° C. to 300° C., at a scanning rate of 20° C./min, with 5 runs per treatment. The results were averaged.
(§3) Normal blonde hair was bleached with Clairol Basic White Bleach, 40 volume H2O2, for 20 min at room temperature. One batch of normal and bleached hair swatches underwent five heat cycles at 130° C., where one treatment cycle involved the following steps (1-4):
(§4) 1. The swatches were treated with 0.06 M solutions of monosaccharides in deionized water (about 1 wt %) for 10 min at 45° C.
(§5) 2. The treated swatches were blow-dried for 1 min.
(§6) 3. The heat was applied for 1 min in the form of a flat hair iron Windmere “Solid Gold” (130° C.).
(§7) 4. The swatches were rinsed and blot-dried with a paper-towel.
(§8) The treatment solutions included four pentoses (D-xylose, D-arabinose, D-lyxose, and D-ribose, 1% each) and one hexose (1.2% D-glucose). Deionized water was used as a control treatment. After the heat experiment, the hair was rinsed in water, air-dried, and equilibrated for 24 hours in the humidity chamber at 25° C. and 50% RH prior to further testing. These swatches are referred to as treated at 130° C.
(§9) A second batch of normal and bleached hair swatches were treated in a similar way and blow-dried, without application of the hot iron. The treatment was also repeated 5 times, the swatches from the second batch are referred to as treated at 45° C.
Normal blonde hair was subjected to 12 heat cycles, as described in Example 2, using the following treatment solutions: 0.1% D-Xylose (pentose), 0.1% D-Erythrose (tetrose), and 0.1% D-Glyceraldehyde (triose). Each of the C3 to C5 monosaccharides was effective in protecting or reducing the damage to the α-structure of the hair, as compared to water treatment (Table 15).
Normal blonde hair was subjected to 12 heat cycles, as described in Example 2, using 0.1 wt % of the pentose amine derivative, D-Lyxosylimine in deionized water.

[2] = as above; settings: for Doublet Peak Area: 0.06 M solutions
Protocol: as §1, §2, §3, §4, §5, §6, §7, §8, §9
Normal blonde hair was divided in two batches. The hair from the first batch was bleached with Clairol Basic White Bleach, 40 volume H2O2, for 20 min at room temperature and humidity. The hair from the second batch was first bleached as above, and then permed: Reforming lotion-10% Thioglycolic acid, pH 8.8, 20 min; neutralizer-2% hydrogen peroxide, 5 min. The oxidatively damaged hair was equilibrated for 24 hours prior to further testing.
(§10) Both the bleached and the bleached/permed hair were subjected to heat treatment, as in Example 2. The heat treatment experiment involved 12 heat cycles including application of sugar or control solution before each heat application, and rinsing after the heat application. Deionized water was used as a control treatment.
(§11) After the heat experiment, the hair was rinsed in water, air-dried, and equilibrated for 24 h in the humidity chamber at 25° C. and 50% RH prior to further testing. The effect of the hexoses vs. pentoses on the dry tensile strength (INSTRON) and the alpha-structure (doublet peak area, DSC) was tested on the bleached hair (Table 13). The effect of a hexose (D-glucose) vs. a pentose (D-Xylose) on wet tensile strength (DIA-STRON) was tested both on the bleached and the bleached/permed hair (Table 14). Application of 0.06M solutions of pentoses protected the bleached and the bleached/permed hair against thermal damage (α-structure; wet and dry tensile strength).

[3] = Dry tensile strength (Instron) after heat cycles; settings: normal blonde hair, 5 heat cycles at 130° C., 0.06 M solutions, n = 50 fibers
Protocol: (§12) Tensile strength was determined using both the Instron (50 dry fibers per tests) and the Dia-Stron (100 wet fibers per test), with the stretching rate of 100 mm/min. The following parameters were determined: Young's Modulus (N/m^2), Work to stretch 25% (J/m^2); Extension to Break (degree of elongation) (%); Work to Break (J/m^2).
as §3, §4, §5, §6, §7, §8, §9

[4] = Dry tensile strength (Instron) after heat cycles; settings: for protection of dry tensile strength, in words: hair treated 5 cycles at 45° C. and at 130° C.
Protocol: as §1, §12, §3, §4, §5, §6, §7, §8, §9, §10, §11

[5] = DSC doublet peak area (α-structure) of hair after heat cycles; settings: bleached/permed hair, 12 heat cycles, 0.06 M
Protocol: Normal blonde hair was bleached with Clairol Basic White Bleach (40 volume H2O2) for 20 min at standard room temperature and humidity. The bleached swatches were rinsed with tap water, and soaked in an excess of deionized water for 2 hours. The swatches were air-dried and equilibrated for 48 hours prior to further treatment. Some of the bleached swatches were subsequently “permed” using a Reforming Lotion (10% TGA, pH 8.8, 20 minutes) and then neutralized with 2% H2O2, pH 3 (5 minutes). The bleached/permed swatches were rinsed with tap water, and soaked in an excess of deionized water for 2 hours. The swatches were air-dried and equilibrated for 48 hours prior to further treatment. The swatches that were heat treated were treated with 0.06M solutions of hexoses and pentoses for 10 min at 45° C. and then were heated for 12 cycles. The swatches were rinsed after the heat application. In the DSC tests, finely cut hair (4-5 mg) was crimped in an aluminum pan that was punctured prior to each run. The samples were heated from 25° C. to 300° C., at a scanning rate of 20° C./min, with 5 runs per treatment. The results were averaged. Normal blonde hair was divided in two batches. The hair from the first batch was bleached with Clairol Basic White Bleach, 40 volume H2O2, for 20 min at room temperature and humidity. The hair from the second batch was first bleached as above, and then permed: Reforming lotion-10% Thioglycolic acid, pH 8.8, 20 min; neutralizer-2% hydrogen peroxide, 5 min. The oxidatively damaged hair was equilibrated for 24 hours prior to further testing. Both the bleached and the bleached/permed hair were subjected to heat treatment, as in Example 2. The heat treatment experiment involved 12 heat cycles including application of sugar or control solution before each heat application, and rinsing after the heat application. Deionized water was used as a control treatment. After the heat experiment, the hair was rinsed in water, air-dried, and equilibrated for 24 h in the humidity chamber at 25° C. and 50% RH prior to further testing. The effect of the hexoses vs. pentoses on the dry tensile strength (INSTRON) and the alpha-structure (doublet peak area, DSC) was tested on the bleached hair (Table 13). The effect of a hexose (D-glucose) vs. a pentose (D-Xylose) on wet tensile strength (DIA-STRON) was tested both on the bleached and the bleached/permed hair (Table 14). Application of 0.06M solutions of pentoses protected the bleached and the bleached/permed hair against thermal damage (α-structure; wet and dry tensile strength).

[6] = 0.1 wt % solutions, 12 heat cycles at 130° C.
[7] = 5 heat cycles at 130° C., 0.06 M solutions
[8] = bleached hair, 5 cycles at 45° C.
[9] = bleached hair, 5 heat cycles at 130° C.
[10] = bleached hair, 5 heat cycles at 130° C., 0.06 M solutions, n = 50 fibers
[11] = dry, bleached hair, 5 cycles at 45° C., 0.06 M solutions, n = 50 fibers
[12] = bleached hair after 12 heat cycles
[13] = bleached hair after 12 heat cycles, 0.06 M solutions, n = 100 fibers
[14] = dry bleached hair, 12 heat cycles, 0.06 M, INSTRON, n = 50 fibers

Compound	Doublet Peak Area [2, 12]	Work 25% (Dry) [4, 13]	Extension-Break [4, 14]	Work 25% [4, 14]	Work-Break [4, 14]	Young's Modulus [4, 14]	also measured
O=C[C@H](O)[C@H](O)CO [D-Erythrose]							Doublet Peak Area [1, 6]: 13.20 +/− 7.15 J/g hair
O=C[C@@H](O)[C@@H](O)[C@H](O)CO [D-Lyxose]							Doublet Peak Area [1, 7]: 8.35 +/− 0.81 J/g hair; Doublet Peak Area [2, 8]: 8.26 +/− 3.02 J/g hair; Doublet Peak Area [2, 9]: 6.23 +/− 0.59 J/g hair; Work 25% (Dry) [3]: 883.4 +/− 174.2 J/m^2; Work 25% (Dry) [4, 10]: 819.9 +/− 162.7 J/m^2; Work 25% [4, 11]: 1,157 +/− 228 J/m^2; protection of dry tensile strength, in words [4]: better improved protection at 45 °C
C[C@H](O)[C@@H](O)[C@@H](O)[C@H](O)C=O [L-Fucose]	5.26 +/− 1.59 J/g hair	838.2 +/− 134.5 J/m^2	57.01 +/− 6.18%	838.2 +/− 134.5 J/m^2	2,346 +/− 543 J/m^2	4,331 +/− 860 MN/m^2	
D-Lyxosylimine							Doublet Peak Area ([1]; 0.1 wt % Lyxosylimine, 12 heat cycles at 130° C.): 11.49 +/− 3.56 J/g hair; protection of the α-structure as compared to water treatment, in words ([1]; 0.1 wt % solutions, 12 heat cycles): protected the α-structure hair
O=C[C@H](O)[C@@H](O)[C@@H](O)[C@H](O)CO [D-Galactose]	5.39 +/− 2.29 J/g hair	945.8 +/− 168.9 J/m^2	58.82 +/− 6.21%	945.8 +/− 168.9 J/m^2	2,696 +/− 533 J/m^2	4,724 +/− 913 MN/m^2	
O=C(CO)[C@@H](O)[C@H](O)[C@H](O)CO [D-Fructose]	6.51 +/− 1.71 J/g hair	885.0 +/− 161.0 J/m^2	59.89 +/− 8.11%	885 +/− 161 J/m^2	2,644 +/− 644 J/m^2	4,492 +/− 852 MN/m^2	
O=C[C@@H](O)[C@H](O)[C@H](O)CO [D-Arabinose]							Doublet Peak Area [1, 7]: 11.33 +/− 2.30 J/g hair; Doublet Peak Area [2, 8]: 7.78 +/− 1.07 J/g hair; Doublet Peak Area [2, 9]: 8.22 +/− 0.90 J/g hair; Work 25% (Dry) [3]: 1,060 +/− 180 J/m^2; Work 25% [4, 11]: 1,147 +/− 191 J/m^2; protection of dry tensile strength, in words [4]: improved protection both at 45 °C and at 130 °C
O=C[C@@H](O)[C@@H](O)[C@H](O)[C@H](O)CO [D-Mannose]	5.47 +/− 1.27 J/g hair	914.9 +/− 122.0 J/m^2	57.33 +/− 5.98%	914.9 +/− 122 J/m^2	2,595 +/− 433 J/m^2	4,746 +/− 688 MN/m^2	
O=C[C@H](O)[C@H](O)[C@H](O)CO [D-Ribose]							Doublet Peak Area [2, 8]: 7.80 +/− 1.87 J/g hair; Doublet Peak Area [2, 9]: 9.27 +/− 2.81 J/g hair; Work 25% (Dry) [4, 10]: 1,064 +/− 171.1 J/m^2; Work 25% [4, 11]: 1,237 +/− 204 J/m^2; protection of dry tensile strength, in words [4]: improved protection both at 45 °C and at 130 °C
O=C[C@H](O)CO [D-Glyceraldehyde]							Doublet Peak Area [1, 6]: 13.47 +/− 3.03 J/g hair
O=CC[C@H](O)[C@H](O)CO [2-Deoxy-D-ribose]	9.63 +/− 2.87 J/g hair	1,032 +/− 163 J/m^2	55.35 +/− 7.52%	1,032 +/− 163 J/m^2	2,872 +/− 709 J/m^2	5,111 +/− 871 MN/m^2	protection effect (normalized α-structure peak area), in words ([2]; bleached and bleached/permed hair, 12 heat cycles): protection effect was found; Normalized area ([2]; bleached hair, 12 heat cycles, 0.06 M): 9.63 +/− 2.87 J/g hair; Normalized area [5]: 6.43 +/− 1.87 J/g hair
